For experiment [1], the system named is cancer cells. Particulars: literature comparison with colchicine; cited from earlier work.
Experiment [2] concerns cancer cells. Particulars: literature; cited from earlier work.
A further experiment relates to PANC02 cells. The experiment is described as follows: In vivo efficacy study, subcutaneous PANC02 tumour model. Details: species or system C57BL/6 mice. Particulars: 60 mg/kg BW gemcitabine IP, 3 times/week. Here is the method:
Cultures of PANC02 cells were harvested using a 0.05% trypsin solution, washed twice in sterile PBS and resuspended in sterile PBS at a concentration of 30 x 10^6 cells per mL. The viable cells were counted by using the Muse® Cell Analyzer. The mice (n = 56) were inoculated with 100 µL of the cell suspension in the right hind limb. Each mouse was randomly assigned to one of 8 groups (n = 6-8 mice per group) receiving a different treatment (Table 2). Tumour growth of the subcutaneous model was evaluated with calliper measurements from the moment the tumours became palpable and this three times a week before treatment and daily during treatment. The tumour volume was calculated by means of formula V = 0.5 x ab^2, with a and b being the long and short axes of the tumour, respectively. Table 2 - Group treatment assignment
Treatment was administered during 10 days, starting 19 days after tumour inoculation when tumours had reached a volume of approximately 300-400 mm^3. The first day of treatment was assigned "day 1". […] For both extracts the total amount of colchicine and its derivatives (calculated as colchicine) was the same, but the amount of colchicine itself in the extracts was different. […] To evaluate the effect of the treatment, tumour volume was measured daily during treatment and the mice were sacrificed on day 11.
Results were expressed as mean values of parameters ± standard error (SE). […]

We go through 4 molecules from patent publication EP3069725A1, “GLORIOSA SUPERBA L. EXTRACTS, COMPOSITIONS AND USE THEREOF” (priority 2015, dated 2016).

With `COc1cc2c(c(OC)c1O)-c1ccc(OC)c(=O)cc1[C@@H](NC(C)=O)CC2` [2-O-demethylcolchicine], the in vivo potency in the experiment with cancer cells [1] is 13.8 µmol/kg.
`COc1cc2c(c(OC)c1OC)-c1ccc(OC)c(=O)cc1[C@@H](NC(C)=O)CC2` [COL, colchicine]: the in vivo potency in the experiment with cancer cells [1] is listed as 0.4 µmol/kg.
With `COc1c(O[C@@H]2O[C@H](CO)[C@@H](O)[C@H](O)[C@H]2O)cc2c(c1OC)-c1ccc(OC)c(=O)cc1[C@@H](NC(C)=O)CC2` [Colchicoside], the activity in vitro entry in the experiment with cancer cells [2] is recorded as “not active”.
As for `Nc1ccn([C@@H]2O[C@H](CO)[C@@H](O)C2(F)F)c(=O)n1` [Gemcitabine, gemcitabine], the “% TGI (7 days)” value in the experiment on PANC02 cells (day 7) was 90%. Moreover, the “% TGI (10 days)” value with PANC02 cells (day 10) was determined as 99%.
